{"source": "paper PMC12010006", "about": "“Subnanomolar MAS-related G protein-coupled receptor-X2/B2 antagonists with efficacy in human mast cells and disease models” (Signal Transduction and Targeted Therapy, 2025)", "molecular_target": "T1, MRGPRX2 (Homo sapiens, UniProt Q96LB1)", "T1 sequence (Q96LB1 1-330)": "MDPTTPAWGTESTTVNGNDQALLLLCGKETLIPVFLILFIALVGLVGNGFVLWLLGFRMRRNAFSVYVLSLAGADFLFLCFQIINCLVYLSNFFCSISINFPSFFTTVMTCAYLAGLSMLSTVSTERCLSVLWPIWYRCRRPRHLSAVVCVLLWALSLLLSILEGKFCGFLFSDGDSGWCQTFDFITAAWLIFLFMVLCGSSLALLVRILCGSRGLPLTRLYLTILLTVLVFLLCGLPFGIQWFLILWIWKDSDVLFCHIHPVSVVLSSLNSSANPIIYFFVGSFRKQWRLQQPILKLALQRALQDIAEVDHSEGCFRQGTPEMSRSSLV", "assay": "β-hexosaminidase release, LAD2 cells", "format": "cell-based", "conditions": "versus SP (0.3 µM)", "method": "PSB-172656 inhibited MRGPRX2-mediated Ca^2+ mobilization in LAD2 cells (see Supplementary Fig. S4).\nFig. 6 PSB-172656 inhibits MRGPRX2-mediated mast cell degranulation. a LAD2 cells were incubated with buffer (control) or various concentrations of MRGPRX2 antagonist PSB-172656, subsequently exposed to substance P (SP, 0.3 µM), and β-hexosaminidase release was measured. […] Data are expressed as means ± SEM of 3 biological replicates. Statistical significance was determined by one-way ANOVA (Tukey’s multiple comparisons), compared to the effect of SP in the absence of PSB-172656 (P-value*** < 0.001). b Potential cytotoxicity of PSB-172656 was determined in 3-[4,5-dimethylthiazol-2-yl]-2,5-diphenyl tetrazolium bromide (MTT) assays performed on LAD2 cells. Cells were treated with different concentrations of PSB-172656 for 24 h at 37 °C, and the optic density value was determined at 570 nm (the viability of untreated cells corresponds to 100% cell viability). […] Mean fluorescence intensity (MFI) levels of e CD107a and f CD63 are depicted. […] Degranulation is characterized by the release of β-hexosaminidase, expressed as a percentage of the total content. h Human skin MCs were incubated with different concentrations of PSB-172656 for 30 min followed by stimulation with CST-14 (1 µM). […]\nDegranulation as determined by β-hexosaminidase release was performed as described previously.[66],[67] […]", "data": [{"molecule": "CCc1c(C(C)C)[nH]c2nc3cc(F)c(F)cc3n2c1=O", "note": "[Compound 24, 3-ethyl-7,8-difluoro-2-isopropylbenzo[4,5]imidazo [1,2-a] pyrimidin-4(1H)-one]", "values": [{"measurement": "IC50", "result": 5.26, "unit": "nM"}]}]}
